Here are results for one compound from patent US20200354327A1, “COMPOUND HAVING STAT3 INHIBITORY ACTIVITY AND USE THEREOF” (CYTUS H&B CO., LTD., priority 2017, published 2020).

Some results are limits rather than exact numbers.

Test [1] concerns STAT3. Put plainly: Western blot analysis of the 13 selected compounds. The note with it: among the 13 selected compounds. The class given is cell-based. The protocol: (§1) Western blot analysis was performed (Jung J E, et al. FASEB J. 19, 1296-1298 (2005)). The cells were washed two times with PBS and suspended in the lysate (50 mM Tris-HCl, pH 7.4, 350 mM NaCl, 1% Triton X-100, 0.5% Nonidet P-40, 10% glycerol, 0.1% SDS, 1 mM EDTA, 1 mM EGTA, 1 mM Na3VO4, 1 mM PMSF, protease and phosphorylation inhibitor) and the cell membrane and nuclear membrane were crushed to lyse the cells. The insoluble protein fraction was removed by centrifugation, and the supernatant was mixed with SDS electrophoresis buffer and electrophoresis (SDS-PAGE) was performed to detect the protein with the desired antibody and to confirm the protein expression level.

Test [2] has as its system human malignant glioblastoma. Put plainly: Cell viability of human malignant glioblastoma with or without IL-6. The class given is cell-based. To be noted: treated with IL-6 for 24 or 48 hours or not; various concentrations.
Test [3] deals with U87-MG cells. Briefly: Cell proliferation assay, U87-MG. To be noted: by time period, versus DMSO. Type of test: cell-based, human. On the procedure:
(§2) Cell proliferation assay was performed as previously described (Won C, et al. Anticancer Res. 30, 481-488 (2010)). In order to analyze the cell proliferation rate, U87-MG and MDA-MB-231 cell lines were dispensed into a 6-well culture dish, then treated with DMSO and ODZ10117 the next day, and stained with crystal violet after 0 h, 24 h, 48 h, and 72 h, and the number of live cells was calculated using a hemocytometer.

In test [4] the test system is MDA-MB-231 cells. Put plainly: Cell proliferation assay, MDA-MB-231. Type of test: cell-based, human. To be noted: MDA-MB-231, by time period, versus DMSO. The protocol:
as §2

Test [5] concerns Twist. Briefly: Expression of Twist in U87-MG and MDA-MB-231 cells. Type of test: cell-based, human. The note with it: U87-MG and MDA-MB-231, 24 hours. The protocol:
RNA isolation and real-time polymerase chain reaction were performed as described previously (Jung J E, et al. FASEB J. 19, 1296-1298 (2005)). Primer specific for human-derived Bcl-XL, Bcl-2, Twist, and GADPH genes were mixed with QuantiFast SYBR Green PCR master mix, and each gene was amplified using the Applied Biosystems 7300 real-time PCR system to compare the expression level.

Test [6] relates to MMP-2. Briefly: Activity of MMP-2 in U87-MG and MDA-MB-231 cells. Type of test: cell-based, human. To be noted: U87-MG and MDA-MB-231, 24 hours.
Test [7] relates to U87-MG cells. Put plainly: Human tumor cell xenograft, U87-MG. Type of test: in vivo, BALB/c nude mice. The note with it: injected directly into the tumor, versus DMSO. On the procedure:
Male Nude Mouse (BALB/cAnNCrj-nu/nu) was purchased from Charles River Japan Inc. (Shin-Yokohama, Japan). The mouse was bred in a clean room in which the temperature and humidity were constantly controlled. The breeding process was carried out according to the method described in the manual for maintenance of laboratory animals in Seoul National University. U87-MG cells or MDA-MB-231 cells were diluted with PBS, suspended in 100 μl of Matrigel at 25% concentration, and injected into the back of mouse and bred for 6 to 10 weeks. Human tumor growth was measured every other day using a vernier caliper from 2 weeks after cell injection. With regard to the degree of inhibition of human tumor cell formation, 40 μM of ODZ10117 was directly injected into the human tumor on days 0, 3, and 5 from week 4 of tumor cell injection. On the 7th day, the mouse was sacrificed to separate the tumor, and the tumor cell inhibitory efficacy of the drug was measured by being compared with that of the control group treated with 1% DMSO.

For test [8], the system named is p-STAT3, Cleaved Caspase-3, Bcl-XL, Ki67 and MMP2. Briefly: Tumor histology and immunostaining of xenograft tumor sections. The class given is in vivo, BALB/c nude mice. The note with it: 7th day of drug administration. On the procedure: Tumors isolated from mice were fixed with formalin and embedded with paraffin, and sections were cut from each paraffin block. For histological evaluation, the sections were stained with hematoxylin-eosin, phospho-STAT3, cleaved caspase-3, Bcl-XL, Ki67, and pro/active MMP-2, respectively. The paraffin of the sections was removed, moisture was removed using alcohol, and then the sections were heated in 10 mM sodium citrate buffer (pH: 6.0) for 5 minutes with microwaves. Non-specific binding was removed by reacting the sections with a PBS solution containing 2.5% bovine serum albumin and 2% normal goat serum for 1 hour. The sections were reacted with antibodies against phospho-STAT3, cleaved caspase-3, Bcl-XL, Ki67, and pro/active MMP-2 diluted 1:100 overnight at 4° C. As a negative control, the sections were reacted with a dilution solution in a state of not containing primary antibodies. The sections were then washed and reacted with secondary antibodies labeled with appropriate biotin, and the location and expression of the bound antibodies were confirmed using an avidin-biotin-horseradish complex. For histological evaluation, each stained section was observed under a microscope at 100-fold and 400-fold magnifications and analysis was performed using a Sony XC-77 CCD camera and a microcomputer imaging device Model 4 image analysis system.

The target of test [9] is T1, STAT3 (Homo sapiens, UniProt P40763). Briefly: STAT3 dimerization (STAT3-Flag / STAT3-HA, immunoprecipitation and western blot in HEK293T). Also noted: Flag; HA; expressed in transfected cells; host or cells: HEK293T. The class given is cell-based. (In general: Immunoblotting shows a protein as a band on a membrane.)
Target sequence in this assay (P40763 whole entry, species assumed): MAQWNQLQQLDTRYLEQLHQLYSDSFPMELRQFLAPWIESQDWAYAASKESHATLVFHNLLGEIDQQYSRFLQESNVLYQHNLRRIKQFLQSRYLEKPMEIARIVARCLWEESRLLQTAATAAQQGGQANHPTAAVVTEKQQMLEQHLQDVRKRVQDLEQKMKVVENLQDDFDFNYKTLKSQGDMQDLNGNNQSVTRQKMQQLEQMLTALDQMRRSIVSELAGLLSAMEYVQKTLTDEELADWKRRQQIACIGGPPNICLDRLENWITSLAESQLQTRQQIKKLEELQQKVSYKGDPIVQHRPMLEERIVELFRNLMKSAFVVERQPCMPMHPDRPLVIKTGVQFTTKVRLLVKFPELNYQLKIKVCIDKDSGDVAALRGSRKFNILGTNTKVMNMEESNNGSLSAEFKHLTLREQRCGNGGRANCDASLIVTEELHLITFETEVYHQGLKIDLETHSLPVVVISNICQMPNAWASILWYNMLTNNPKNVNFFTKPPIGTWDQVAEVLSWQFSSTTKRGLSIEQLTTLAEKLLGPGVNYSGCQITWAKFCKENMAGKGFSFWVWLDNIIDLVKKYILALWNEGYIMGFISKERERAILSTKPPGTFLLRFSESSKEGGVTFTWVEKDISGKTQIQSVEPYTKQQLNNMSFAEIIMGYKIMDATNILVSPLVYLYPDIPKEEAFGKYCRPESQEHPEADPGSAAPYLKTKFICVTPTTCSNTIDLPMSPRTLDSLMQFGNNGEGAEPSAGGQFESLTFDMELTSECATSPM
Test [10] addresses T1, STAT3. Briefly: Western blot in U87-MG and MDA-MB-231 cells. The class given is cell-based. More on the design: endogenous in cells; host or cells: L540, HDLM-2, U87-MG, MDA-MB-231, further human glioblastoma and breast cancer lines. The protocol:
The human cancer cell lines used in the experiment were U87-MG (human malignant glioblastoma) and MDA-MB-231 (human malignant breast cancer) cell lines, and various kinds of human-derived blood and solid cancer cells including these human cancer cell lines were cultured as previously described (Jung J E, et al. FASEB J. 19, 1296-1298 (2005)). The human Hodgkin lymphoma cancer cell lines L540 and HLDM-2 used in the experiment were obtained from the German Collection of Microorganism and Cell Cultures (DSMZ, Germany) and cultured using RPMI 1640 medium containing 20% FBS in a 5% CO2 incubator at a temperature of 37° C.
as §1
Target sequence in this assay (P40763 whole entry): as the sequence (P40763 whole entry, species assumed) above

In test [11] the target is T1, STAT3. Put plainly: Western blot in human malignant breast cancer cell lines. Type of test: cell-based. More on the design: endogenous in cells; host or cells: L540, HDLM-2, U87-MG, MDA-MB-231, further human glioblastoma and breast cancer lines. On the procedure: as §1
Target sequence in this assay (P40763 whole entry): as the sequence (P40763 whole entry, species assumed) above

On to `Clc1ccc(OCc2noc(C(Cl)(Cl)Cl)n2)c(Cl)c1` [ODZ10117, 3-(2,4-dichloro-phenoxymethyl)-5-trichloromethyl-[1,2,4]oxadiazole], for which the “STAT3 inhibitory action (Western blot)” value in test [1] was “judged to be extremely superior”. The cell survival result in [2] was “cell survival was inhibited”. Further, the cell proliferation entry in test [3] was “effectively inhibited the proliferation of the two cell lines”. For the same compound, the cell proliferation entry in [4] is on record as “effectively inhibited the proliferation of the two cell lines”. Also, the “expression of Twist” value in test [5] was “significantly decreased”. Besides, in [6], the “activity of MMP-2” value is “significantly decreased”. Further, in [7], the tumor growth entry is on record as “significantly inhibited tumor growth”. For the same compound, in test [8], the “activity of caspase-3 in tumor tissues” value was “increased the activity of caspase-3”, the “expression of Bcl-XL in tumor tissues” value is “significantly decreased the expression”, the “expression of Ki67 in tumor tissues” value is “significantly decreased the expression of Ki67” and the “expression of pro/active MMP2 in tumor tissues” value is on record as “significantly decreased the expression”. For the same compound, in test [8] (versus DMSO), the “phosphorylation of STAT3 in tumor tissues” value was “phosphorylation of STAT3 significantly decreased”. For the same compound, in test [9], the STAT3 dimerization result was “inhibited STAT3 dimerization” and the “STAT3 dimerization inhibitory efficacy compared with napabucasin” value is recorded as “superior STAT3 dimerization inhibitory efficacy to napabucasin”. In addition, in [10], the “phosphorylation of tyrosine 705 and serine 727 residues of STAT3” value was “significantly inhibited phosphorylation of tyrosine 705 and serine 727 residues of STAT3”. Moreover, in test [11], the “STAT3 inhibitory efficacy compared with napabucasin” value is “STAT3 inhibitory efficacy similar to that of napabucasin at high concentrations”, the “phosphorylation of tyrosine 705 of STAT3” value is listed as “inhibited the phosphorylation of tyrosine 705 of STAT3 in human malignant breast cancer cell lines in a concentration-dependent manner” and the “time to complete inhibition of phosphorylation of STAT3 after treatment” value was ≤ 2 h. Also, the “STAT3 inhibitory efficacy compared with known inhibitors” value in [11] (versus NSC628869 and NSC74859) is “superior STAT3 inhibitory efficacy to NSC628869 and NSC74859”.
